Test results published in patent US5863931A, “Amidino derivatives and their use as nitric oxide synthase inhibitors” (priority 1991, dated 1999).
Like-named read-outs stand apart in the source and are kept apart here.

How the values were obtained:
Inducible NO synthase = target: T1, Inducible NO synthase (Rattus norvegicus, UniProt Q06518); experiment: Inducible NO synthase inhibition (method essentially according to Rees et al, Biochem. Biophys. Res. Comm. 1990; rat aortic rings, LPS-induced loss of tone); format: cell-based; settings: for EC50 ratio: constitutive EC50 / inducible EC50
T1 construct: activity of the inducible enzyme in the vascular smooth muscle cells; from tissue; host or cells: rat aortic rings, LPS-induced (vascular smooth muscle)
Protocol: (§1) The activity of a compound as an inhibitor of the enzyme NO synthase can be determined by an assay in which a macrophage cell line (J774) is induced to express NO synthase with lipopolysaccharide (LPS) and interferon gamma and NO generated is measured by its reaction with haemoglobin or as nitrite. […] Selectivity can be determined by use of an assay based on rat aortic rings in vitro. The basal tone of the tissue is used as an indication of the activity of the constitutive NO synthase whereas LPS-induced loss of tone mediated by NO is used as an indication of the activity of the inducible enzyme in the vascular smooth muscle cells.
Inducible NO synthase--method essentially according to Rees et al, Biochem. Biophys. Res. Comm., 173, 541-547 (1990).

Constitutive NO synthase = target: T2, Constitutive NO synthase (Rattus norvegicus, UniProt Q62600); experiment: Constitutive NO synthase inhibition (method of Rees et al, Br. J. Pharmacol. 1990; rat aortic rings in vitro, basal tone); format: cell-based
T2 construct: The basal tone of the tissue is used as an indication of the activity of the constitutive NO synthase; from tissue; host or cells: rat aortic rings
Protocol: as §1, with “cells. […] Constitutive NO synthase--method of Rees et al, Br. J. Pharmacol., 101, 746-752 (1990)” for “cells.”

[1] = test system: constitutive and the inducible NO synthase; settings: inhibits both constitutive and inducible NO synthase; cited from earlier work
[2] = inducible NO synthase, read-out: NO Synthase Activity Inducible EC50

| SMILES | EC50 ratio (Inducible NO synthase) | EC50 (Inducible NO synthase; [2]) [nM] | EC50 (Constitutive NO synthase) [nM] | EC50 (Inducible NO synthase) [nM] | selectivity between constitutive and inducible NO synthase [1] |
| --- | --- | --- | --- | --- | --- |
| CC(=N)NCCC[C@H](N)C(=O)O.Cl [Example 1, (S)-N^5-(1-Iminoethyl)ornithine hydrochloride] | 36.4 | 140 | 5100 | – | – |
| CC(=N)NCCCC[C@H](N)C(=O)O.Cl [Example 2, (S)-N^6-(1-Iminoethyl) lysine hydrochloride] | 43.1 | – | 6900 | 160 | – |
| CN=C(N)NCCC[C@H](N)C(=O)O [L-NMMA, L-N-monomethyl-arginine] | – | – | – | – | non-selective |

Now from value to compound, other results behind:

| EC50 ratio (Inducible NO synthase) | EC50 (Inducible NO synthase; [2]) [nM] | EC50 (Constitutive NO synthase) [nM] | SMILES | EC50 (Inducible NO synthase) [nM] | selectivity between constitutive and inducible NO synthase [1] |
| --- | --- | --- | --- | --- | --- |
| 9.7 | 320 | 3100 | CC(=N)NC/C=C/CC(N)C(=O)O.Cl (racemic) [Example 3, (±)-E-2-Amino-6-(1-Iminoethylamino)-hex-4-enoic acid hydrochloride] | – | – |
| 33.4 | 130 | 4300 | CC(=N)NCCSC[C@@H](N)C(=O)O.Cl [Example 4, (S)-S-2-(1-Iminoethylamino)ethylcysteine hydrochloride] | – | – |
